Laboratory results reported in patent US6486199B1, “Spiro and dispiro 1,2,4-trioxolane antimalarials” (Medicines for Malaria Venture MMV International Centre …, priority 2001, dated 2002).
≈ marks a conversion by molar mass, not a printed value. Where “and” joins values, the source holds several entries; their conditions need not be identical. Equal values may be shown once. Read-outs that look alike come from different tables or passages of the source. Marks after values point to notes of the source that are not given here.

Assays:
[1] = tested on: adult schistosomes (49-day-old) of Schistosoma mansoni; assay: effect on adult schistosomes (49-day-old) in mice; assay type: in vivo; settings: single 400 mg/kg per os; for TWR (%): total worm reduction rate; for Mean total worm burden: x ± SD
Method: Mice were infected with 100 Schistosoma mansoni cercariae […]. Each group was treated per os with OZ compounds at a single dose of 400 mg/kg. Untreated mice served as the control. All groups were killed 4 weeks after treatment and the liver and intestine were removed and separated. The liver and intestine were compressed and alive male and female worms could be seen and counted.

[2] = tested on: chloroquine-sensitive NF54 strain of P. falciparum; assay: in vitro screen against chloroquine-sensitive NF54 strain of P. falciparum; assay type: cell-based; settings: for IC50: Plasmodium falciparum
P. berghei [3] = assay: 1-day Peters test against P. berghei in vivo; settings: for ED50 / ED90: Plasmodium berghei, 24 h; for P. berghei (1 day) ED90 sc / ED50 / ED90 / P. berghei (1 day) ED50 po / P. berghei (1 day) ED90 po / P. berghei (1 day) ED50 sc: 1 day; for ED90: read-out: P. berghei (1 day) ED90 po
adult S. mansoni = assay: activity against adult S. mansoni, treated once at day 49 of infection; assay type: in vivo; settings: OZ05 200 mg/kg p.o., OZ11 100 mg/kg p.o.
[4] = tested on: 21-day-old schistosomules of Schistosoma mansoni; assay: effect on 21-day-old schistosomules in mice; assay type: in vivo; settings: single 200 mg/kg per os; for TWR (%): total worm reduction rate; for FWR (%): female worm reduction rate; for Mean female worm burden: mean ± standard deviation
Method: […] Each group was treated per os with OZ compounds at a single dose of 200 mg/kg. Untreated mice served as the control. All groups were killed 4 weeks after treatment and the liver and intestine were removed and separated. The liver and intestine were compressed and alive male and female worms could be seen and counted. The effect of the compounds was evaluated by mean total and female worm burden.

[5] = tested on: chloroquine-resistant K1 strain of P. falciparum; assay: in vitro screen against chloroquine-resistant K1 strain of P. falciparum; assay type: cell-based; settings: for IC50: Plasmodium falciparum
[6] = tested on: ANKA strain of P. Berghei; assay: single dose STI in vivo screen in infected Moro SPF mice; settings: for inhibition in vivo at 10 mg/kg / inhibition in vivo at 100 mg/kg: Plasmodium berghei, 72 h; for inhibition in vivo at 10 mg/kg / inhibition in vivo at 100 mg/kg / Activity (%) po / Activity (%) sc: percent reduction in parasitemia day 3 post-infection; for antimalarial activity, overall assessment: overall judgement of in vitro and in vivo data of Table 2
NB2a cell line = assay: neurotoxicity against the NB2a cell line; assay type: cell-based
parasitemia = assay: onset of drug action and recrudescence after single oral dose; assay type: in vivo; settings: for duration of action compared with artemether: single 100 mg/kg po; for Recrudescence (>5% parasitemia) occurs on day: single 100 mg/kg po on day +3 post-infection
Method: The reduction of parasitemia was monitored 12 h after treatment, and the time of recrudescence was assessed by daily blood smears for 14 days, followed by intermittent assessment for up to 30 days.

P. berghei [7] = assay: 4-day Peters test against P. berghei in vivo; settings: 4 day; for ED50: Plasmodium berghei, 96 h
[8] = differential scanning calorimetry (DSC), thermal stability; assay type: physicochemical; settings: thermal decomposition
Schistosoma mansoni = assay: treatment of mice infected with Schistosoma mansoni cercaria, six weekly oral doses; assay type: in vivo; settings: for activity in the same assay: artemether at doses four times higher than OZ05, arteflene 6×600 mg/kg p.o., fenozan 6×100 mg/kg p.o.
Text: Mice (MORO SPF female 18-20g) were infected with 90 (±10) cecaria of Schistosoma mansoni subcutaneously.

[9] = po, read-out: P. berghei (1 day) ED50 po
[10] = sc, read-out: P. berghei (1 day) ED50 sc
[11] = single 10 mg/kg po, read-out: Activity (%) po
[12] = single 100 mg/kg po, survival to day 30 = cure
[13] = single 100 mg/kg sc, survival to day 30 = cure

| Molecule | TWR (%) [1] | P. berghei (1 day) ED90 sc (P. berghei [3]; sc) | ED50 (P. berghei [3]; [9]) | ED90 (P. berghei [3]; po) | activity against adult S. mansoni (adult S. mansoni) | TWR (%) [4] | Survival (days) po ([6]; single 10 mg/kg po) | Survival (days) sc ([6]; single 10 mg/kg sc) | Survival (days) po [6, 12] | Survival (days) sc [6, 13] | duration of action compared with artemether (parasitemia) | Recrudescence (>5% parasitemia) occurs on day (parasitemia) | P. berghei (4 day) ED90 po (P. berghei [7]; po) | P. berghei (4 day) ED90 sc (P. berghei [7]; sc) | P. berghei (1 day) ED50 po (P. berghei [3]; po) | P. berghei (1 day) ED90 po (P. berghei [3]; po) | P. berghei (4 day) ED50 po (P. berghei [7]; po) | P. berghei (4 day) ED50 sc (P. berghei [7]; sc) | also measured |
| --- | --- | --- | --- | --- | --- | --- | --- | --- | --- | --- | --- | --- | --- | --- | --- | --- | --- | --- | --- |
| CO[C@H]1O[C@@H]2O[C@@]3(C)CC[C@H]4[C@H](C)CC[C@@H]([C@H]1C)[C@@]24OO3 [Artemether, artemether, reference compound] | 31.0% | 2.3 mg/kg | 2 mg/kg | 4.3 mg/kg | no activity | 82.2% | 8.0 days | 9.0 days | 14.7/14.7 days | 14.7/14.7 days |  |  |  |  |  |  |  |  | IC50 ([2]; NF54, read-out: IC50 (ng/ml) NF54): 0.37 ng/mL (≈ 1.24 nM); ED50 (P. berghei [3]; [10]): 2.1 mg/kg; IC50 ([5]; K1, read-out: IC50 (ng/ml) K1): 0.5 ng/mL (≈ 1.68 nM); inhibition in vivo at 10 mg/kg [6, 11]: 98.7%; inhibition in vivo at 10 mg/kg ([6]; single 10 mg/kg sc, read-out: Activity (%) sc): 100%; inhibition in vivo at 100 mg/kg ([6]; single 100 mg/kg po, read-out: Activity (%) po): 100%; inhibition in vivo at 100 mg/kg ([6]; single 100 mg/kg sc, read-out: Activity (%) sc): 100% |
| C[C@H]1[C@@H](O)O[C@@H]2O[C@@]3(C)CC[C@H]4[C@H](C)CC[C@@H]1[C@@]24OO3 [Dihydroart, dihydroartemisinin, reference compound] |  |  | 2.9 mg/kg | 12 mg/kg |  |  | 6.8/NA days |  |  |  |  |  |  |  |  |  |  |  | IC50 ([2]; in vitro, NF54 strain, read-out: IC50 (ng/ml) NF54): 0.23 ng/mL (≈ 0.809 nM); IC50 ([5]; in vitro, K1 strain, read-out: IC50 (ng/ml) K1): 0.22 ng/mL (≈ 0.774 nM); inhibition in vivo at 10 mg/kg [6, 11]: 80%; IC50 (NB2a cell line): 0.22 µM |
| C1CCC2(CC1)OOC1(O2)C2CC3CC(C2)CC1C3 (centres unmarked) [OZ03, Adamantane-2-spiro-3′-1′,2′,4′-trioxaspiro[4.5]decane] |  | 2.2 mg/kg | 5 mg/kg | 8.8 mg/kg |  |  | 7.2 days | 11.9 days | 14.3 days | 28 days | comparable | 7 days | 2.7 mg/kg | 1.1 mg/kg |  |  |  |  | ED50 (P. berghei [3]; [10]): 0.7 mg/kg; ED50 (P. berghei [7]; po, read-out: P. berghei (4 day) ED50 po): 1 mg/kg; ED50 (P. berghei [7]; sc, read-out: P. berghei (4 day) ED50 sc): 0.6 mg/kg; IC50 ([5]; K1, read-out: IC50 (ng/ml) K1): 1.2 ng/mL (≈ 4.54 nM); antimalarial activity, overall assessment [6]: more active; Activity (%) po ([6]; single 10 mg/kg po): 94%; Activity (%) sc ([6]; single 10 mg/kg sc): 100%; Activity (%) po ([6]; single 100 mg/kg po): 100/100%; Activity (%) sc ([6]; single 100 mg/kg sc): 100/100%; IC50 (NB2a cell line): 13 µM |
| O=C1CCC2(CC1)OOC1(O2)C2CC3CC(C2)CC1C3 (centres unmarked) [OZ05, Adamantane-2-spiro-3′-8′-oxo-1′,2′,4′-trioxaspiro[4.5]decane] | 0% | 2.3 mg/kg |  |  | showed activity | 90% |  |  | 10.7 days | 30 days | comparable | 5 days | 6.1 mg/kg | 1.0 mg/kg | 3.5 mg/kg | 7.0 mg/kg | 1.5 mg/kg | 0.6 mg/kg | Percentage of dead worm [1]: 13.4 (31/232); Total dead worm [1]: 31; Mean total worm burden [1]: 40.2 ± 13.6; Tm dec. (° C.) [8]: 156.3 °C; P. berghei (1 day) ED50 sc (P. berghei [3]; sc): 0.16 mg/kg; FWR (%) [4]: 88%; Mean female worm burden [4]: 1.5 ± 1.0^b; IC50 (ng/ml) K1 ([5]; in vitro, K1 strain): 0.19 ng/mL (≈ 0.683 nM); antimalarial activity, overall assessment [6]: more active; Activity (%) po ([6]; single 100 mg/kg po): 100/100%; Activity (%) sc ([6]; single 100 mg/kg sc): 100/100%; IC50 (NB2a cell line; NB2a cell line): 31 µM; reduction in parasitaemia (Schistosoma mansoni; 100 mg/kg p.o. on days 7, 14, 21, 28, 35, 42, individual mice): 100% and 53% |
| CC1(C)COC2(CCC3(CC2)OOC2(O3)C3CC4CC(C3)CC2C4)OC1 (centres unmarked) [OZ11, Adamantane-2-spiro-3′-11′,11′-dimethyl-1′,2′,4′,9′,13′-pentaoxadispiro[4.2.5.2]pentadecane] | 16.2% | NA/0.87 mg/kg |  |  | showed activity | 85% |  |  |  |  | longer | 10 days | 3.1 mg/kg | 0.9 mg/kg | 1.5 mg/kg | 2.8 mg/kg | 1.8 mg/kg | 0.5 mg/kg | Percentage of dead worm [1]: 3.9 (6/156); Total dead worm [1]: 6; Mean total worm burden [1]: 30.0 ± 1.9^a; Tm dec. (° C.) [8]: 162.4 °C; FWR (%) [4]: 84%; Mean female worm burden [4]: 2.0 ± 1.9^b |
| C[C@@H]1C(=O)C[C@H]2C[C@@H]1OO[C@@]2(C)/C=C\c1ccc(C(F)(F)F)cc1C(F)(F)F [arteflene, reference compound] |  |  |  |  |  |  |  |  |  |  |  |  |  |  |  |  |  |  | activity in the same assay (Schistosoma mansoni): inactive |
| fenozan [reference compound] |  | 3.2 mg/kg |  |  |  |  | 8.6 days | 13.4 days |  |  |  |  | 2.7 mg/kg | 2.3 mg/kg | 1.7 mg/kg | 4.3 mg/kg | 1.9 mg/kg | 1.1 mg/kg | IC50 (ng/ml) NF54 ([2]; in vitro, NF54 strain): 3.0 ng/mL; P. berghei (1 day) ED50 sc (P. berghei [3]; sc): 1.7 mg/kg; oral activity based on po ED50/ED90 values (P. berghei [3]; po, ranking among trioxolanes and controls): only slightly less orally active than OZ11; IC50 (ng/ml) K1 ([5]; in vitro, K1 strain): 3.2 ng/mL; Activity (%) po ([6]; single 10 mg/kg po): 99.95%; Activity (%) sc ([6]; single 10 mg/kg sc): 100%; activity in the same assay (Schistosoma mansoni): inactive |
